Reference: paper PMC4153969, “A Novel Suspension Formulation Enhances Intestinal Absorption of Macromolecules Via Transient and Reversible Transport Mechanisms” (Pharmaceutical Research, 2014)

Columns and labels:
[1] = tested on: Cynomolgus monkeys; test: 9-month chronic toxicity study, daily oral enteric-coated capsules; format: in vivo, Cynomolgus monkeys (Macaca fasicularis); settings: compared to the negative control group (olive oil)
Protocol: During the dosing period, animals were fasted for 8 to 10 h prior to dosing, and the first feeding was given 2 h after dosing. Monkeys were observed twice daily for mortality, morbidity, and clinical signs of adverse health effects and qualitative food consumption. Weekly examinations were performed on each animal before drug administration and before terminal sacrifice. Pre-dose body weights were recorded (week −1) and weekly thereafter. Blood samples (~5 ml) were collected for hematology and serum chemistry from the femoral vein before drug administration and from surviving animals prior to the terminal necropsy.
A complete ophthalmic examination was performed on each monkey by a Diplomat of the American College of Veterinary Ophthalmologist veterinarian before animal selection/group assignment (pretest) and again, prior to study termination.
Electrocardiograms (ECGs) were obtained twice pre-study and were analyzed by a veterinary cardiologist for the presence of significant abnormalities. ECGs were also obtained following the 1st dose and at the 3, 6, and 9 months of dosing. Standard ECGs (10 Lead) were recorded at 50 mm/s. Using Lead II (or another appropriate lead), the RR, PR, and QT intervals, and QRS duration were measured and heart rate was determined. The QT interval was calculated using Bazett’s Rule. […]

[2] = in vivo; settings: cynomolgus monkey, plasma, sc, 0.1 mg, plasma octreotide, SC injection 0.1 mg daily
Protocol: Enteric-coated capsules containing octreotide (20 mg)/OS or olive oil were administrated daily per os to fasted monkeys for 9 months, and swallowed with 10 mL water. In addition, a 1 mL ampule containing octreotide acetate at a concentration of 0.1 mg/mL (Sandostatin®, Novartis Pharmaceuticals, East Hanover, NJ) was administered by daily subcutaneous (SC) injection to another monkeys group. Oral administration of OS in rodent studies was limited due to the lack of properly enteric coated mini-gelatin capsules. Thus, the OS, containing fluorescent marker molecules (see below) or octreotide was enterally injected via implanted cannulas.
On Day 1 and after 3, 6 and 9 months, whole-blood samples (3.0 mL) were collected at routine intervals after completion of oral octreotide dosing. Plasma octreotide levels were determined by a validated liquid chromatographic spectrometric method (PPD Laboratories, Richmond, VA) as described elsewhere ([18]). The maximum plasma concentration (Cmax) and time to Cmax (Tmax) were derived from the data. The area under the curve (AUC) from zero to the last sample with a concentration ≥LOQ [AUC(0-t)] was calculated using the linear trapezoidal method. Analysis of plasma octreotide concentration vs. time was performed using SAS® for Windows® Version 9.3. The primary pharmacokinetic end point variables (Cmax and AUC0-t) were compared using analysis of variance (ANOVA) with treatment time (1, 180, 270-d) as a within-subject (repeated measures)-factor and sex as a between-subject factor.

[3] = in vivo
Protocol: Octreotide acetate in saline was also injected subcutaneously to this animal model.
The octreotide immunoassay is based on a single-step, extraction-free, simultaneous assay procedure (Peninsula Laboratories, Division of Bachem, San Carlos, CA) designed to quantify octreotide concentrations. Briefly, octreotide standards (0.05–6.25 ng/mL) and rat plasma samples were diluted 1:10 with PBS, followed by addition of octreotide anti-rabbit antiserum antibody, biotinylated octreotide tracer, and assay buffer. Samples were washed and incubated with streptavidin–HRP. Optical density was read at a dual absorbance of 450 nm and 630 nm using an Enzyme-Linked Immunoassay (ELISA) reader (Multiskan EX Labsystems; Thermo Electron Corporation, Milford, MA) after addition of TMB solution and acidic stopping solution.
Results were expressed as mean ± SE. The area under plasma concentration–time profile measured from time zero to the last measurable plasma concentration was calculated according to the linear trapezoidal rule. Relative enteral bioavailability (rBA) following intra-jejunal administration of the OS formulation to rats was calculated compared with SC injection as follows: rBA%=AUCjejunum/AUCSC×DoseSC/Dosejejunum×100

C[C@@H](O)[C@@H]1NC(=O)[C@H](CCCCN)NC(=O)[C@@H](Cc2c[nH]c3ccccc23)NC(=O)[C@H](Cc2ccccc2)NC(=O)[C@@H](NC(=O)[C@H](N)Cc2ccccc2)CSSC[C@@H](C(=O)N[C@H](CO)[C@@H](C)O)NC1=O [octreotide acetate]
clinical observation: hair and skin ([1]; both sexes): increased incidence of sparse hair and red discoloured skin
clinical observation: feces [1]: higher incidence of watery feces
AUC(0-t) ([2]; female, Day 1, female monkeys): 64.3 ± 5.3 ng·h/mL
AUC(0-t) ([2]; female, Day 180, female monkeys): 60.8 ± 6.9 ng·h/mL
AUC(0-t) ([2]; female, Day 270, female monkeys): 49.6 ± 3 ng·h/mL
AUC(0-t) ([2]; male, Day 1, male monkeys): 41.7 ± 8.6 ng·h/mL
AUC(0-t) ([2]; male, Day 180, male monkeys): 46.2 ± 5.4 ng·h/mL
AUC(0-t) ([2]; male, Day 270, male monkeys): 51.3 ± 11.3 ng·h/mL
AUC(0-t) ([3]; Sprague-Dawley, rat, plasma, sc, 0.172 mg/kg): 205 ng·h/mL
change in rat plasma peptide concentrations ([3]; enteral dosing in saline solution without OS, data not shown): negligible changes
